Legend:
cannabis EAs [1] = experiment: Regeneration of non-transformed cannabis EAs on different SIMs, number of meristems per explant; format: cell-based; conditions: added to SIM with TDZ
From the text: Various experiments were directed to testing different culture media and different concentrations of components of the culture media, such as SIMs with different TDZ concentrations. […] Some experiments were directed to testing different SIMs on cannabis EAs and with different light conditions. For example, the seeds were sterilized and imbibed, and the EAs were extracted. In some experiments, the EAs were not transformed, and between 40 and 50 EAs were regenerated on each different SIMs. In further experiments, a subset of the EAs were plated on an SIM without plant growth regulators, such as TDZ, and the remaining EAs were plated on an SIM with 10 mg/L TDZ, with different groups of each subset being exposed to different light conditions.
The images 1680, 1681, 1683, 1684 show resulting explants regenerated in SIM with 1 mg/L TDZ, 2.5 mg/L TDZ, 5 mg/L TDZ, and 10 mg/L TDZ, respectively.
FIG. 16B is a graph illustrating the explants regenerated in the different SIMs as previously described by FIG. 16A and the number of resulting meristems.
In some experiments, additional TDZ concentrations were tested and different combinations of components in the SIM were tested.

cannabis EAs [2] = experiment: Regeneration of cannabis EAs on SIM with 10 mg/L TDZ under different light conditions; format: cell-based; conditions: for explants with 3+ meristems: 10 mg/L TDZ
From the text: Various experiments were directed to testing different culture media and different concentrations of components of the culture media, such as SIMs with different TDZ concentrations. […] Based on various experiments, it is believed that cannabis plants have strong apical dominance, and breaking the apical dominance will increase transformation efficiency and result in more transgenic events. […] Some experiments were directed to testing different SIMs on cannabis EAs and with different light conditions. For example, the seeds were sterilized and imbibed, and the EAs were extracted. In some experiments, the EAs were not transformed, and between 40 and 50 EAs were regenerated on each different SIMs. In further experiments, a subset of the EAs were plated on an SIM without plant growth regulators, such as TDZ, and the remaining EAs were plated on an SIM with 10 mg/L TDZ, with different groups of each subset being exposed to different light conditions. Tables 2 and 3 summarize example media and light conditions:
The B, G, R values in Table 3 include blue, green, and red light values, along with the intensity of the light.
FIGS. 16F and 16G are graphs illustrating the results of the different light conditions on the number of meristems per explant in cultures without plant growth regulators (FIG. 16F) and with 10 mg/L TDZ (FIG. 16G). […] For example, around half of the 10 mg/L TDZ had multiple meristems, with the light II conditions resulting in 40% explants with 3+ meristems, […] explants with 3+ meristems, and light I conditions resulting in 12% explants with 3+ meristems.

## O=C(O)Cc1c[nH]c2ccccc12 [IAA, indoleacetic acid]
Cannabis EAs [1]
  impact of SIM additive on regeneration: did not have a significant positive impact

## O=C(Nc1ccccc1)Nc1cnns1 [TDZ, thidiazuron]
Cannabis EAs [2]; 10 mg/L TDZ in SIM, FIG. 16G
  share of explants with multiple meristems: around half
Cannabis EAs [2]; light I conditions
  explants with 3+ meristems: 12%
Cannabis EAs [2]; light II conditions
  explants with 3+ meristems: 40%
Cannabis EAs [2]; light II conditions (printed a second time)
  explants with 3+ meristems: 24%

## Adenine Hemisulfate
Cannabis EAs [1]
  impact of SIM additive on regeneration: did not have a significant positive impact

Source: patent US20240376484A1, “TRANSFORMING CANNABACEAE CELLS” (Cibus US LLC, priority 2021, published 2024)
